Measured values from US20200205406A1, “MICROBIOCIDAL PHENYLAMIDINE DERIVATIVES WITH IMPROVED PLANT SAFETY PROPERTIES” (SYNGENTA PARTICIPATIONS AG, priority 2017, published 2020).

CCN(C)C=Nc1cc(OC)c(Oc2ccccc2)cc1C
melting point: 59 to 60 °C
